Test results as given in article PMC11929074, “An in vitro platform for the enzymatic characterization of the rhomboid protease RHBDL4” (The Journal of Biological Chemistry, 2025).
*1 amine or outer side, *2 acyl side, *3 side chain or, on linkers, in order; H or OH if unused. Where a SMILES comes first, the peptide text is derived from it. [ ]: non-standard residue; d: D form. The star is where a group is joined. NH(4-phenylbutyl) = c1ccc(CCCCN*)cc1; X1 = C[C@H](N[*:1])C(=O)C(=O)[*:2]

Assays:
recombinant human RHBDL4 [1] = target: T1, recombinant human RHBDL4 (Homo sapiens, UniProt Q8TEB9); assay: Inhibition of RHBDL4 proteolysis of IQ6 (FRET-based in vitro assay); type: biochemical; details: IQ6 substrate; for inhibition of RHBDL4 proteolytic activity: increasing concentrations, 1 h pre-incubation, 2 h reaction, n = 3
T1 construct: The entire RHBDL4 and RHBDL4-S144A cDNAs were subcloned into the pcDNA3.1 vector; 6xHis (C, cleaved yes); made in house; host or cells: Freestyle 293-F cells (transient transfection, pcDNA3.1-HisA)
T1 sequence (Q8TEB9 1-315): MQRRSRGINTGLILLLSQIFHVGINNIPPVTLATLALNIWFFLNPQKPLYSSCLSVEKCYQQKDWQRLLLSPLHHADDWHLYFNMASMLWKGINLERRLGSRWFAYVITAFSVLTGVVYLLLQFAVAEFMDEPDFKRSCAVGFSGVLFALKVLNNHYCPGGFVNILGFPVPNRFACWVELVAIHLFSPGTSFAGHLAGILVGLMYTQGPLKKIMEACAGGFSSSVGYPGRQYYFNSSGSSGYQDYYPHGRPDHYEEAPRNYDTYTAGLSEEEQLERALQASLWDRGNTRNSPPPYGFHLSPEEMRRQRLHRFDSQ
From the text: (§1) B, schematic representation of the peptidyl-α-ketoamide scaffold with peptide sequence P5-P1 at the nonprime side and hydrophobic substituent (R) at the prime side. C, schematic representation of the peptidyl-α-ketoamide inhibitor, compound 1a/1b. D, representative inhibition curve derived from measuring rates of RHBDL4 proteolysis of the fluorescent substrate IQ6 with increasing concentrations of compound 1a. E, same as (D), except inhibition curve was derived from using increasing concentrations of compound 1b. […] Reactions were quenched with 1 keLaemmli buffer and loaded on 12% SDS-PAGE gel. Post-transfer membranes were visualized using a fluorescence Cy3 filter and by Western blotting using an α-His antibody. For (A, D, and E), all inhibitors were pre-incubated with RHBDL4 for 1 h and allowed to react with the IQ6 substrate for 2 h.
(§2) B, representative inhibition curve derived from measuring rates of RHBDL4 proteolysis of the fluorescent substrate IQ6 with increasing concentrations of compound 3. C, same as (B), except inhibition curve was derived from using increasing concentrations of compound 4. […] Reactions were quenched with 1 RLaemmli buffer and loaded on 12% SDS-PAGE gel. Post-transfer membranes were visualized using a fluorescence Cy3 filter and by Western blotting using an α-His antibody. E, saturation curve of RHBDL4 using fluorescent substrate, KSp207. For (B and C), all inhibitors were pre-incubated with RHBDL4 for 1 h and allowed to react with the IQ6 substrate for 2 h. […] I assigned them to the substrate KSp207, which is named on the x-axis and in the inset table.
(§3) The enzymatic assay was performed as previously described (Arutyunova et al., 2014, ([26])). […] The FRET-based cleavage assay was conducted in a fluorescence multiwell plate reader (SynergyMx, BioTek). Upon excitation at 320 nm, the emission intensity at 400 nm was recorded for 2 h at minimal intervals under shaking conditions and plotted using the GraphPad PRISM software. The initial velocities were defined as the slopes of the curve of the generated product as a function of time. The plots of the generated product against the corresponding substrate concentration were fitted with the Michaelis–Menten equation. Catalytic parameters were extrapolated using GraphPad PRISM. […] The samples were desalted using C18 tips (Rainin), eluted in 80% acetonitrile, and dried down in a vacuum centrifuge prior to mass spectrometry analysis.

RHBDL4-S144A = assay: FRET-based cleavage by inactive RHBDL4-S144A; type: biochemical, human; details: pH 8, 37 °C
From the text: (§4) The reaction setup in our FRET assay enabled the direct determination of Michaelis–Menten kinetic parameters Km and kcat for the cleavage of IQ6, IQ41, and IQ46 by RHBDL4. Our fluorescence reading data were converted to μM/h using the standard calibration curve for all three IQ substrates, and the correction factor for the inner filter effect was applied. We confirmed that purified RHBDL4 followed Michaelis–Menten kinetics with KmIQ6=10.73±2μΜ , KmIQ41=5.63±2μΜ , and KmIQ46=7.19±1μΜ and kcatIQ6=7.33±0.6h^−1 , kcatIQ41=2.41±0.6h^−1 , and kcatIQ46=3.62±0.08h^−1 (Figs. 2B and S2B).
Figure 3 Dependence of conserved rhomboid motifs on RHBDL4 protease activity.A, RHBDL4 representation highlighting TM1–6 (in green), the VBM- and UIM-binding motifs (in blue), the conserved rhomboid motifs (WR and Gx3G), and the serine-histidine catalytic dyad (in pink). The table indicates the RHBDL4 region, the conserved rhomboid motifs, and amino acid mutation. The RHBDL4 proteolytic activity. B, size-exclusion chromatography profile of RHBDL4-AR and RHBDL4-Ax3G, being eluted as a monomeric protein. C, coomassie staining and Western blotting using an α-His antibody of concentrated purified RHBDL4-AR and RHBDL4-Ax3G. D, activity profiles of the WT RHBDL4 and mutant RHBDL4-S144A, RHBDL4-AR, and RHBDL4-Ax3G proteins, as measured by cleavage of the fluorescent substrate IQ6. Assay was performed in triplicate (n = 3), and data points are represented by the average ± S.E.M. Statistically significant differences compared to WT RHBDL4 are indicated (pairwise Dunnett's test followed by Bonferroni's post hoc analysis; ∗p < 0.05, n.s., no significance).
The enzymatic assay was performed as previously described (Arutyunova et al., 2014, ([26])). […] The FRET-based cleavage assay was conducted in a fluorescence multiwell plate reader (SynergyMx, BioTek). Upon excitation at 320 nm, the emission intensity at 400 nm was recorded for 2 h at minimal intervals under shaking conditions and plotted using the GraphPad PRISM software. […]

recombinant human RHBDL4 [2] = target: T1, recombinant human RHBDL4; assay: FRET-based cleavage assay with fluorescent (IQ / KSp207) substrates; type: biochemical; details: for kcat / pH of highest RHBDL4 protease activity / salt concentration range with satisfactory activity: triplicate; for kcat: average ± S.E.M.; for pH of highest RHBDL4 protease activity: pH range 5 to 10; for salt concentration range with satisfactory activity: salt tested 100 to 300 mM
Experimental: Figure 2 Kinetic characterization of recombinant human RHBDL4.A, schematic representation of the FRET-based cleavage assay using internally quenched (IQ) substrates. B, saturation curves of RHBDL4 using the fluorescent IQ substrates, IQ6, IQ41, and IQ46. C, pH dependence of the RHBDL4 protease activity using substrates IQ6, IQ41, and IQ46. D, salt concentration dependence of the RHBDL4 protease activity using substrates IQ6, IQ41, and IQ46. All the assays were performed in triplicate, and data points are represented by the average ± S.E.M. TEXT PRINTED IN THE PICTURE: (B) IQ 6: KM(μM) 10.73±2; Kcat(hr^-1) 7.33±0.6 | (B) IQ 41: KM(μM) 5.63±2; Kcat(hr^-1) 2.41±0.6 | (B) IQ 46: KM(μM) 7.19±1; Kcat(hr^-1) 3.62±0.8
as §4
Our FRET-based assay is a suitable platform for optimizing conditions that enhance RHBDL4 protease activity. To this end, we selected the optimal pH for RHBDL4 protease activity and performed FRET-based assays with IQ6, IQ41, and IQ46 at a pH range of 5 to 10. […] The optimal salt concentration for the RHBDL4 protease activity was also tested in the range of 100 to 300 mM (Fig. 2D). We conclude that with the IQ6, IQ41, and IQ46 substrates, RHBDL4 had satisfactory activity in a salt concentration range of 100 to 300 mM.
as §2, with “Figure 5 In vitro inhibition of RHBDL4 activity with TMED7-derived peptidyl α-ketoamides.A, schematic representation of the peptidyl-α-ketoamide inhibitor, compound 3 and 4. B,” for “B,”
as §3
All the calculations for Km, Vmax, and Kcat for RHBDL4 and its mutants were performed using GraphPad PRISM.

[3] = target: T2, WT RHBDL4 (human rhomboid protease RHBDL4, recombinant) (human) (UniProt Q8TEB9)
T2 sequence: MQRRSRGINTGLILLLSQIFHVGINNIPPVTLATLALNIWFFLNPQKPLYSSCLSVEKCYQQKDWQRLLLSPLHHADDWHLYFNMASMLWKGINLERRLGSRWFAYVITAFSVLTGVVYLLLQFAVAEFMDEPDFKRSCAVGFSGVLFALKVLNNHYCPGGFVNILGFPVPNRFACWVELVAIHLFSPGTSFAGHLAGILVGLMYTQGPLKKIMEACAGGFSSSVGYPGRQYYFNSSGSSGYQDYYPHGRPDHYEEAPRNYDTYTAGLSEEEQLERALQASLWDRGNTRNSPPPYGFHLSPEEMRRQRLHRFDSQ

[4] = test system: WT RHBDL4 (recombinant, purified); assay: TAMRA-FP competition labelling on recombinant RHBDL4; type: binding, human; details: in-gel Cy3 fluorescence, compared with inactive RHBDL4-S144A control
From the text: as §1, §2

[5] = Michaelis-Menten, 1.5 μM RHBDL4, 37 °C, 2 h, pH 8.0, 150 mM NaCl, 0.1% DDM

Cc1ccc(S(=O)(=O)N[C@@H](Cc2ccccc2)C(=O)CCl)cc1 [N-p-tosyl-L-phenylalanine chloromethyl ketone]
inhibition of RHBDL4 proteolytic activity (recombinant human RHBDL4 [1]): weak inhibition at all concentrations tested

Cl.NCCc1ccc(S(=O)(=O)F)cc1 [4-(2-aminoethyl) benzenesulfonyl fluoride hydrochloride]
inhibition of RHBDL4 proteolytic activity (recombinant human RHBDL4 [1]): weak inhibition at all concentrations tested

mca-FLVRGK(dnp) [IQ46, fluorescent internally quenched substrate mca-FLVRGK(dnp)]
cleavage by inactive RHBDL4-S144A (increase in fluorescence / activity) (RHBDL4-S144A): negligible increase in fluorescence
kcat (recombinant human RHBDL4 [2]; 37 °C, pH 8.0): 0.00101 ± 0.00022 s⁻¹
kcat (recombinant human RHBDL4 [2]; [5]): 0.00101 ± 2.2e-05 s⁻¹
pH of highest RHBDL4 protease activity (recombinant human RHBDL4 [2]): 8
salt concentration range with satisfactory activity (recombinant human RHBDL4 [2]): 100 to 300 mM

compound 1a (peptidyl α-ketoamide, Ac-VRHA-CONH-CH(Bn)-CH2OBn) (peptide)
IC50 of inhibition of RHBDL4 proteolysis of the fluorescent substrate IQ6 (in vitro FRET-based activity assay; 1 h pre-incubation, 2 h reaction) [3]: 2.31 µM

Ac-QMESA-4mc [KSp207, TMED7-derived fluorescent substrate Ac-QMESA-4mc]
cleavage rate/efficiency relative to other substrates (recombinant human RHBDL4 [2]; FRET-based assay): higher enzymatic cleavage efficiency than IQ6
kcat (recombinant human RHBDL4 [2]; [5]): 0.003069 ± 0.00022 s⁻¹
catalytic rate (cleavage rate) (recombinant human RHBDL4 [2]; approximate, discussion): ~11 h⁻¹

CC(=O)N[C@H](C(=O)N[C@@H](CCCNC(=N)N)C(=O)NC(Cc1c[nH]cn1)C(=O)N[C@@H](C)C(=O)C(=O)N[C@H](COCc1ccccc1)Cc1ccccc1)C(C)C (stereo partly shown) [compound 1b]
competition with TAMRA-FP probe (fluorescent signal) [4]: significant reduction of fluorescent signal

mca-FVTKGK(dnp) [IQ41, fluorescent internally quenched substrate mca-FVTKGK(dnp)]
cleavage by inactive RHBDL4-S144A (increase in fluorescence / activity) (RHBDL4-S144A): negligible increase in fluorescence
kcat (recombinant human RHBDL4 [2]; 37 °C, pH 8.0): 0.000669 ± 0.00017 s⁻¹
kcat (recombinant human RHBDL4 [2]; [5]): 0.000669 ± 0.00017 s⁻¹
pH of highest RHBDL4 protease activity (recombinant human RHBDL4 [2]): 7
salt concentration range with satisfactory activity (recombinant human RHBDL4 [2]): 100 to 300 mM

CC(=O)N[C@H](C(=O)N[C@@H](CCCNC(=N)N)C(=O)NC(Cc1c[nH]cn1)C(=O)N[C@@H](C)C(=O)C(=O)N[C@H](COCc1ccccc1)Cc1ccccc1)C(C)C (stereo partly shown) [compound 1a]
competition with TAMRA-FP probe (fluorescent signal) [4]: significant reduction of fluorescent signal

CC(=O)N1CCC[C@H]1C(=O)NCC(=O)N[C@@H](Cc1ccccc1)C(=O)N[C@@H](CO)C(=O)N[C@@H](C)C(=O)C(=O)NCCCCc1ccccc1 [compound 2] (Ac-PGFS[X1]-{NH(4-phenylbutyl)})
IC50 (recombinant human RHBDL4 [1]; inhibitor pre-incubated with RHBDL4 for 1 h, then reacted with IQ6 for 2 h, n = 3, average ± S.E.M.): 3.4 ± 1.2 µM

O=c1oc(Cl)c(Cl)c2ccccc12 [3,4-dichloroisocoumarin]
inhibition of RHBDL4 proteolytic activity (recombinant human RHBDL4 [1]): inhibited the RHBDL4 proteolytic activity only at higher concentrations (100 μM)

compound 1b (peptidyl α-ketoamide, Ac-VRHA-CONH-CH(Bn)-CH2OBn) (peptide)
IC50 of inhibition of RHBDL4 proteolysis of the fluorescent substrate IQ6 (in vitro FRET-based activity assay; 1 h pre-incubation, 2 h reaction) [3]: 6.1 µM

Ac-PGFSA-{α‑ketoamide CONH‑(CH2)4‑Ph} [compound 2 (IQ6-derived peptidyl α-ketoamide, Ac-PGFSA-CONH-(CH2)4-Ph)]
IC50 of inhibition of RHBDL4 activity (in vitro FRET-based activity assay) [3]: 3.4 µM
